molecular target: E3 ubiquitin-protein ligase Mdm2 (Homo sapiens, UniProt Q00987); experiment: Binding affinity to HDM2 (unknown origin)
Sequence (Q00987 whole entry): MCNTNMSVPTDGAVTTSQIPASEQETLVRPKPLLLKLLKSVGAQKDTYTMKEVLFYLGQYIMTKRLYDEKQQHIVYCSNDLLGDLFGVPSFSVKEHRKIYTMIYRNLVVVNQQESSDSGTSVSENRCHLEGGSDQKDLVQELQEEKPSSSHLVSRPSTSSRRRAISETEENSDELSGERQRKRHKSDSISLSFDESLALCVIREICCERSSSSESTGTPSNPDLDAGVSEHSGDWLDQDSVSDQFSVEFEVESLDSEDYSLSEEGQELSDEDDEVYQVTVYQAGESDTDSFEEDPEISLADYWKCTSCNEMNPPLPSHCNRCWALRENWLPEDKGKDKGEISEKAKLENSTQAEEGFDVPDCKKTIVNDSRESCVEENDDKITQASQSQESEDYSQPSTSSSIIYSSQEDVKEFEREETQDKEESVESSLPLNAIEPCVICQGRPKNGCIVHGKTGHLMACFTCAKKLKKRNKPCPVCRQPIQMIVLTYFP

| Kd [nM] | SMILES |
| --- | --- |
| 570 | COc1ccc(C2=NC(c3ccc(Cl)cc3)C(c3ccc(Cl)cc3)N2C(=O)N2CCN(C(=O)CCCNC(=O)CCCC(=O)N(CC#N)S(=O)(=O)c3ccccc3)CC2)c(OC(C)C)c1 (centres undefined) |

molecular target: Induced myeloid leukemia cell differentiation protein Mcl-1 (Homo sapiens, UniProt Q07820); experiment: Inhibition of MCL-1 in human MOLP8 cells assessed as increase in caspase 3/7 activation; format: cell-based
Sequence (Q07820 whole entry): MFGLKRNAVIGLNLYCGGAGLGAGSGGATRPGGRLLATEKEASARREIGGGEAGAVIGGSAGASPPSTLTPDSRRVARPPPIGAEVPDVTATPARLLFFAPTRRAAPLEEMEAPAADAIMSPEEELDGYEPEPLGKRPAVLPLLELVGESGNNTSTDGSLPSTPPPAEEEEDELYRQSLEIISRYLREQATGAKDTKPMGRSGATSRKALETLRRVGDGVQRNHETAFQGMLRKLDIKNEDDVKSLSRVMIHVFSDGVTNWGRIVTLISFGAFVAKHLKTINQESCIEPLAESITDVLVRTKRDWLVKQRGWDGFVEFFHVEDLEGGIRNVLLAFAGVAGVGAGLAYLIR

| SMILES | EC50 [nM] |
| --- | --- |
| Cc1c(-c2cccc3c(CCCOc4cccc5ccccc45)c(C(=O)O)[nH]c23)c(COc2ccccc2)nn1C | > 11000 |
| Cc1c(-c2cccc3c(CCCOc4cccc5ccccc45)c(C(=O)O)[nH]c23)c(COc2ccc(B(O)O)cc2)nn1C | > 11000 |
| CC(=O)c1cc(OCc2nn(C)c(C)c2-c2cccc3c(CCCOc4cccc5ccccc45)c(C(=O)O)[nH]c23)ccc1B(O)O | 1170 |
| Cc1c(-c2cccc3c(CCCOc4cccc5ccccc45)c(C(=O)O)n(C)c23)c(COc2ccc(B(O)O)c(C=O)c2)nn1C | 75 |
| CC(=O)c1cccc(OCc2nn(C)c(C)c2-c2cccc3c(CCCOc4cccc5ccccc45)c(C(=O)O)[nH]c23)c1 | 2700 |

Continued, values first:

| EC50 [nM] | SMILES |
| --- | --- |
| > 11000 | Cc1c(-c2cccc3c(CCCOc4cccc5ccccc45)c(C(=O)O)[nH]c23)c(COc2cccc(C=O)c2)nn1C |
| 340 | CCc1nn(C)c(CC)c1-c1cccc2c(CCCOc3cccc4ccccc34)c(C(=O)O)n(CCN3CCOCC3)c12 |
| 460 | Cc1c(-c2cccc3c(CCCOc4cccc5ccccc45)c(C(=O)O)[nH]c23)c(COc2ccc(B(O)O)c(C=O)c2)nn1C |

From ChEMBL document CHEMBL5223124, “Recent applications of covalent chemistries in protein-protein interaction inhibitors” (RSC Med Chem, 2022)
